Laboratory results reported in patent publication US20240382475A1, “Quinazoline Derivative, Or Preparation Method Therefor And Use Thereof” (Zhejiang Hisun Pharmaceutical Co., Ltd., priority 2021, published 2024).
Read-outs that look alike come from different tables or passages of the source.

Assays:
[1] = Pharmacokinetic evaluation in SD rats; format: in vivo; settings: male, rat, plasma; for AUC(0-t): read-out: Area under curve AUC0-t; for half-life: read-out: Half-life T1/2 (converted)
Method: SD rats were used as the test animals, and LC/MS/MS was used to determine the drug concentrations at different moments in plasma after compound 11 of the present invention was administered to the rats through intravenous injection or intragastric administration. The pharmacokinetic characteristics of compound 11 of the present invention in SD rats were studied.
SD rats, male, 195-235 g, 6-8 weeks old, were purchased from Vital River Laboratory Animal Technology Co., Ltd.
Intravenous injection group: an appropriate amount of the compound to be tested was weighed, and an appropriate amount of DMA:30% Solutol HS-15:Saline=5:5:90 (v/v/v) was added respectively, vortexed, and a solution with a final concentration of 0.2 mg/mL was prepared.
Intragastric administration group: an appropriate amount of the compound to be tested was weighed, and an appropriate amount of DMA:30% Solutol HS-15:Saline=5:5:90 (v/v/v) was added, vortexed, and a solution with a final concentration of 1 mg/mL was prepared.
The SD rats were divided into intravenous injection group (3 rats/group) and intragastric administration group (3 rats/group) according to the compound to be tested.
Intravenous injection group: rats were fasted overnight and then administered by intravenous injection (administration dosage was 1 mg/kg, and administration volume was 5 mL/kg), and ate 4 hours after administration.
Intragastric administration group: rats were fasted overnight followed by intragastric administration (administration dosage was 10 mg/kg, and administration volume was 10 mL/kg), and ate 4 hours after administration.
(§1) Intravenous injection group: about 150 μL of blood was collected through jugular vein into EDTA-K2 anticoagulant tubes 0.083 hour, 0.25 hour, 0.5 hour, 1 hour, 2 hours, 4 hours, 8 hours and 24 hours after administration. The collected blood sample was placed on ice, and plasma was separated by centrifugation (centrifugation condition: 1500 g, 10 minutes). The collected plasma sample was stored at −40˜−20° C. before analysis.
as §1, with “Intragastric administration group:” for “Intravenous injection group:”, “about 100” for “about 150”, “tubes” for “tubes 0.083 hour,”
LC-MS/MS was used to determine the content of the compound to be tested in rat plasma after intravenous injection and intragastric administration of the compound.

[2] = test system: human lung cancer NCI-H2122 subcutaneous xenotransplanted tumor; assay: Pharmacodynamic evaluation in nude mouse subcutaneous xenotransplanted model of human lung cancer NCI-H2122; format: in vivo, Balb/c nude mouse
Method: The anti-tumor effect and safety of compound 11 of the present invention were evaluated in a Balb/c nude mouse animal model of subcutaneous xenotransplanted NCI-H2122.
BALB/c; nude mice, female, 6-7 weeks old (the age of mice when tumor cells were inoculated), purchased from Jiangsu Jicui Yaokang Biotechnology Co., Ltd.
The solvent control group was given DMSO:castor oil:5% glucose injection=20:10:70 (v/v/v).
(§2) AMG-510: an appropriate amount of AMG-510 was weighed, and an appropriate amount of DMSO:castor oil:5% glucose injection=20:10:70 (v/v/v) was added. After the above mixture was fully dissolved, an appropriate amount of 1 M hydrochloric acid was added, vortexed and mixed to prepare a solution with a concentration of 3 mg/mL.
as §2, with “Compound 11:” for “AMG-510:”, “compound 11” for “AMG-510”
H2122 cells were cultured in 1640 culture medium containing 10% fetal bovine serum and 1% penicillin-streptomycin-amphotericin B solution. H2122 cells in the exponential growth phase were collected and resuspended in matrigel solution (matrigel:PBS=1:1 (V/V)) to a suitable concentration for subcutaneous tumor inoculation in nude mice.
Female Balb/c nude mice were subcutaneously inoculated with about 3.0×10^6H2122 cells on the right sides of their backs. When the average volume of the tumors reaches about 150-200 mm^3, the mice were randomly divided according to the tumor sizes with 6 mice in each group.
• Group 1 (G1), solvent control group; • Group 2 (G2), AMG-510 was given by intragastric administration at a dose of 30 mg/kg; • Group 3 (G3), Example 11 was given by intragastric administration at a dose of 30 mg/kg; • Group 4 (G4), AMG-510 and Example 11 were administered in combination, and the dosages were respectively: AMG-510, 30 mg/kg (QD); Example 11, 30 mg/kg (QD).
After tumor inoculation, routine monitoring included the effects of tumor growth and treatment on the normal behaviors of the animals, specifically the mobility, feeding and drinking, weight gain or loss, eyes, coat and other abnormalities of the experimental animals.
Calculation formulae for a relative tumor volume (RTV), a relative tumor proliferation rate (T/C) and a tumor inhibition percentage (IR) were as follows: • (1) TV (tumor volume)=½×a×b^2, wherein a and b represent the length and width of the tumor respectively; • (2) RTV (relative tumor volume)=Vt/Vo, wherein Vo is the tumor volume measured at the time of administration when grouping (i.e. do), and Vt is the tumor volume at each measurement; • (3) relative tumor proliferation rate T/C (%)=TRTV/CRTV×100%, wherein TRTV is the RTV of the treatment group and CRTV is the RTV of the control group; • (4) Tumor growth inhibition rate TGI(%)=(1−T/C)×100%; wherein, T and C are the relative tumor volumes of the treatment group and the control group at a specific time point. • (5) IR (%)=(1−TWt/TWc)×100%, wherein, TWt is the tumor weight of the treatment group and TWc is the tumor weight of the control group. The anti-tumor evaluation criteria are (cytotoxic drugs): T/C(%)>40% is invalid; T/C(%)≤40%, and after statistical processing, P<0.05 is effective.

[3] = 16 days after administration, 30 mg/kg each agent
[4] = end of the experiment, 30 mg/kg each agent

Compound: COc1cc2nc(C)nc(N[C@H](C)c3cccc(C#N)c3C)c2cc1N1CCC(C)(O)CC1 [Compound 11, (R)-3-(1-((6-(4-hydroxy-4-methylpiperidin-1-yl)-7-methoxy-2-methylquinazolin-4-yl)amino)ethyl)-2-methylbenzonitrile]
- bioavailability ([1]; Oral 10 mg/kg vs injection 1 mg/kg, read-out: Bioavailability F): 79.4%
- AUC(0-t) ([1]; Oral 10 mg/kg): 4860 ± 1670 ng·h/mL
- half-life ([1]; Oral 10 mg/kg): 2.41 ± 2.11 h
- Cmax ([1]; Oral 10 mg/kg, read-out: Plasma concentration Cmax): 1150 ± 349 ng/mL
- AUC(0-t) ([1]; iv, injection 1 mg/kg): 612 ± 126 ng·h/mL
- half-life ([1]; iv, injection 1 mg/kg): 0.73 ± 0.32 h
- Relative tumor volume (x ± S) [2, 3]: 4.03 ± 0.67
- TGI % [2, 3]: 20.7%
- Tumor volume (x ± S) ([2]; Day 0 after administration, 30 mg/kg each agent, intragastric): 199 ± 18 mm^3
- Tumor volume (x ± S) ([2]; Day 3 after administration, 30 mg/kg each agent, intragastric): 329 ± 36 mm^3
- Tumor volume (x ± S) ([2]; Day 7 after administration, 30 mg/kg each agent, intragastric): 460 ± 53 mm^3
- Tumor volume (x ± S) ([2]; Day 10 after administration, 30 mg/kg each agent, intragastric): 551 ± 60 mm^3
- Tumor volume (x ± S) ([2]; Day 14 after administration, 30 mg/kg each agent, intragastric): 704 ± 88 mm^3
- Tumor volume (x ± S) ([2]; Day 16 after administration, 30 mg/kg each agent, intragastric): 757 ± 90 mm^3
- Tumor volume (x ± S) ([2]; Table 11, 16 days after administration, 30 mg/kg each agent, in mm³): 757 ± 90
- Inhibition rate of tumor weight (%) [2, 4]: 16.8%
- Tumor weight (g) (x ± S) [2, 4]: 0.6283 ± 0.0663 g
- anti-tumor activity (conclusion in words) ([2]; under the combination with AMG-510, KRAS-G12C inhibitor non-sensitive cell line NCI-H2122): good anti-tumor activity
